This assay addresses T1, human HIF-PHD2 (Homo sapiens, UniProt Q9GZT9).
T1 construct: FLAG-tagged full length PHD2 expressed in and purified from baculovirus-infected Sf9 cells; FLAG; made in house; host or cells: baculovirus-infected Sf9 cells
Description: HIF-PHD2 inhibition assay (hydroxylation of HIF-1α peptide, time resolved fluorescence). In kind it is biochemical. The note with it: FLAG-tagged full length PHD2; 0.2 μM 2-oxoglutarate, 0.5 μM HIF-1α peptide. As for the experimental part:
To each well of a 384-well plate, 1 μL of test compounds in DMSO (final concentration ranging from 0.3 nM to 10 uM) were added into 20 μl of assay buffer (50 mM Tris pH 7.4/0.01% Tween-20/0.1 mg/ml bovine serum albumin/10 μM ferrous sulfate/1 mM sodium ascorbate/20 μg/ml catalase) containing 0.15 μg/ml FLAG-tagged full length PHD2 expressed in and purified from baculovirus-infected Sf9 cells. […] Purif.

The IC50 is the midpoint of a concentration-inhibition curve. A lower IC50 goes with inhibition by little substance.

T1 sequence (Q9GZT9 whole entry): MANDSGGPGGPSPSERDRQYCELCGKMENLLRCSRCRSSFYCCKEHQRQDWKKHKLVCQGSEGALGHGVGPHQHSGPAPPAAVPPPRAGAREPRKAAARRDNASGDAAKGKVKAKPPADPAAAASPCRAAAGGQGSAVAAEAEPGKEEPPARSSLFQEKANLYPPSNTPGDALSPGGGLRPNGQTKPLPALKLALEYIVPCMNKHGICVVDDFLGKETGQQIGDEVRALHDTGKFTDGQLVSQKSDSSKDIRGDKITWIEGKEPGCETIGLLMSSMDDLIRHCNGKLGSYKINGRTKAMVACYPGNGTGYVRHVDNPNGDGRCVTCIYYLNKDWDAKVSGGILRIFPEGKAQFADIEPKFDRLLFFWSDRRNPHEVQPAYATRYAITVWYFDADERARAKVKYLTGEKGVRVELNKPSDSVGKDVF

As for `O=C(O)CNC(=O)c1c(O)c2c(n(Cc3nc4ccccc4s3)c1=O)C1CCC2C1` (racemic) [Example 82, 2-((5S,8R)-1-(benzo[d]thiazol-2-ylmethyl)-4-hydroxy-2-oxo-1,2,5,6,7,8-hexahydro-5,8-methanoquinoline-3-carboxamido)acetic acid], the IC50 came out at 43 nM.

For the compound `CN1Cc2c(c(O)c(C(=O)NCC(=O)O)c(=O)n2Cc2ccc(C(F)(F)F)cc2)CC1=O` [Example 3, 2-(4-Hydroxy-7-methyl-2,6-dioxo-1-(4-(trifluoromethyl)benzyl)-1,2,5,6,7,8-hexahydro-1,7-naphthyridine-3-carboxamido)acetic acid], 6.7 nM corresponded to half-maximal inhibition (IC50).

The compound `O=C(O)CNC(=O)c1c(O)c2c([nH]c1=O)CCOC2` [Example 4, 2-(4-Hydroxy-2-oxo-2,5,7,8-tetrahydro-1H-pyrano[4,3-b]pyridine-3-carboxamido)acetic acid] gave a half-maximal inhibitory concentration (IC50) of 41.8 nM.

Compound `N#Cc1ccc(Cn2c3c(c(O)c(C(=O)NCC(=O)O)c2=O)COCC3)cc1` [Example 5, 2-(1-(4-Cyanobenzyl)-4-hydroxy-2-oxo-2,5,7,8-tetrahydro-1H-pyrano[4,3-b]pyridine-3-carboxamido)acetic acid] gave an IC50 of 13.9 nM.

Turning to `COc1ccc(Cn2c3c(c(O)c(C(=O)NCC(=O)O)c2=O)COCC3)cc1` [Example 6, 2-(4-hydroxy-1-(4-methoxybenzyl)-2-oxo-2,5,7,8-tetrahydro-1H-pyrano[4,3-b]pyridine-3-carboxamido)acetic acid], the IC50 came out at 15.6 nM.

`O=C(O)CNC(=O)c1c(O)c2c(n(Cc3ccc(OC(F)(F)F)cc3)c1=O)CCOC2` [Example 7, 2-(4-hydroxy-2-oxo-1-(4-(trifluoromethoxy)benzyl)-2,5,7,8-tetrahydro-1H-pyrano[4,3-b]pyridine-3-carboxamido)acetic acid] gave an IC50 of 10.3 nM.

Turning to `O=C(O)CNC(=O)c1c(O)c2c(n(Cc3ccc(OC(F)F)cc3)c1=O)CCOC2` [Example 8, 2-(1-(4-(difluoromethxoy)benzyl)-4-hydroxy-2-oxo-2,5,7,8-tetrahydro-1H-pyrano[4,3-b]pyridine-3-carboxamido)acetic acid], the IC50 was found to be 13.4 nM.

Turning to `O=C(O)CNC(=O)c1c(O)c2c(n(Cc3ccc(F)cc3)c1=O)CCOC2` [Example 9, 2-(1-(4-fluorobenzyl)-4-hydroxy-2-oxo-2,5,7,8-tetrahydro-1H-pyrano[4,3-b]pyridine-3-carboxamido)acetic acid], the IC50 was found to be 13.7 nM.

As to `CS(=O)(=O)c1ccc(Cn2c3c(c(O)c(C(=O)NCC(=O)O)c2=O)COCC3)cc1` [Example 11, 2-(4-hydroxy-1-(4-(methylsulfonyl)benzyl)-2-oxo-2,5,7,8-tetrahydro-1H-pyrano[4,3-b]pyridine-3-carboxamido)acetic acid], it took 20.2 nM to reach half-maximal inhibition (IC50).

As for `CC(C)c1ccc(Cn2c3c(c(O)c(C(=O)NCC(=O)O)c2=O)COCC3)cc1` [Example 12, 2-(4-hydroxy-1-(4-isopropylbenzyl)-2-oxo-2,5,7,8-tetrahydro-1H-pyrano[4,3-b]pyridine-3-carboxamido)acetic acid], the half-maximal inhibitory concentration (IC50) turned out to be 12.5 nM.

Consider `CC(C)Oc1ccc(Cn2c3c(c(O)c(C(=O)NCC(=O)O)c2=O)COCC3)cc1` [Example 13, 2-(4-hydroxy-1-(4-isopropoxybenzyl)-2-oxo-2,5,7,8-tetrahydro-1H-pyrano[4,3-b]pyridine-3-carboxamido)acetic acid], for which half-maximal inhibition (IC50) was put at 20.5 nM.

Regarding `O=C(O)CNC(=O)c1c(O)c2c(n(Cc3ccc(F)c(F)c3)c1=O)CCOC2` [Example 15, 2-(1-(3,4-difluorobenzyl)-4-hydroxy-2-oxo-2,5,7,8-tetrahydro-1H-pyrano[4,3-b]pyridine-3-carboxamido)acetic acid], the IC50 worked out at 14.7 nM.

In turn, `O=C(O)CNC(=O)c1c(O)c2c(n(Cc3ccc(F)cc3F)c1=O)CCOC2` [Example 16, 2-(1-(2,4-difluorobenzyl)-4-hydroxy-2-oxo-2,5,7,8-tetrahydro-1H-pyrano[4,3-b]pyridine-3-carboxamido)acetic acid] had an IC50 of 10.3 nM.

Regarding `O=C(O)CNC(=O)c1c(O)c2c(n(Cc3ccc(Cl)cc3F)c1=O)CCOC2` [Example 18, 2-(1-(4-chloro-2-fluorobenzyl)-4-hydroxy-2-oxo-2,5,7,8-tetrahydro-1H-pyrano[4,3-b]pyridine-3-carboxamid)acetic acid], 19.2 nM corresponded to half-maximal inhibition (IC50).

In turn, `CCn1c2c(c(O)c(C(=O)NCC(=O)O)c1=O)COCC2` [Example 19, 2-(1-ethyl-4-hydroxy-2-oxo-2,5,7,8-tetrahydro-1H-pyrano[4,3-b]pyridine-3-carboxamido)acetic acid] displayed an IC50 of 78.5 nM.

For the compound `O=C(O)CNC(=O)c1c(O)c2c(n(CC3CCCCC3)c1=O)CCOC2` [Example 20, 2-(1-(cyclohexylmethyl)-4-hydroxy-2-oxo-2,5,7,8-tetrahydro-1H-pyrano[4,3-b]pyridine-3-carboxamido)acetic acid], the IC50 was 76 nM.

Take `O=C(O)CNC(=O)c1c(O)c2c(n(Cc3ccc4ccccc4c3)c1=O)CCOC2` [Example 21, 2-(4-hydroxy-1-(naphthalen-2-ylmethyl)-2-oxo-2,5,7,8-tetrahydro-1H-pyrano[4,3-b]pyridine-3-carboxamido)acetic acid]: half-maximal inhibition (IC50) was put at 37.7 nM.

In turn, `Cn1c2c(c(O)c(C(=O)NCC(=O)O)c1=O)COCC2` [Example 22, 2-(4-hydroxy-1-methyl-2-oxo-2,5,7,8-tetrahydro-1H-pyrano[4,3-b]pyridine-3-carboxamido)acetic acid] yielded an IC50 of 56.1 nM.

With `O=C(O)CNC(=O)c1c(O)c2c(n(Cc3ncc(C(F)(F)F)cn3)c1=O)CCOC2` [Example 23, 2-(4-hydroxy-2-oxo-1-((5-(trifluoromethyl)pyrimidin-2-yl)methyl)-2,5,7,8-tetrahydro-1H-pyrano[4,3-b]pyridine-3-carboxamido)acetic acid], inhibition was half-maximal at 44.5 nM (IC50).

`O=C(O)CNC(=O)c1c(O)c2c(n(Cc3cc(F)c(F)cc3F)c1=O)CCOC2` [Example 24, 2-(4-Hydroxy-2-oxo-1-(2,4,5-trifluorobenzyl)-2,5,7,8-tetrahydro-1H-pyrano[4,3-b]pyridine-3-carboxamido)acetic acid]: inhibition was half-maximal at 16.8 nM (IC50).

The compound `CNC(=O)c1ccc(Cn2c3c(c(O)c(C(=O)NCC(=O)O)c2=O)COCC3)cc1` [Example 26, 2-(4-Hydroxy-1-(4-(methylcarbamoyl)benzyl)-2-oxo-2,5,7,8-tetrahydro-1H-pyrano[4,3-b]pyridine-3-carboxamido)acetic acid] yielded an IC50 of 30.8 nM.

`Cn1ccc(Cn2c3c(c(O)c(C(=O)NCC(=O)O)c2=O)COCC3)n1` [Example 27, 2-(4-Hydroxy-1-((1-methyl-1H-pyrazol-3-yl)methyl)-2-oxo-2,5,7,8-tetrahydro-1H-pyrano[4,3-b]pyridine-3-carboxamido)acetic acid] yielded an IC50 of 32.6 nM.

For `Cc1cc(Cn2c3c(c(O)c(C(=O)NCC(=O)O)c2=O)COCC3)ccc1C#N` [Example 28, 2-(1-(4-Cyano-3-methylbenzyl)-4-hydroxy-2-oxo-2,5,7,8-tetrahydro-1H-pyrano[4,3-b]pyridine-3-carboxamido)acetic acid], the IC50 was 14.5 nM.

In turn, `N#Cc1ccc(Cn2c3c(c(O)c(C(=O)NCC(=O)O)c2=O)COCC3)cc1F` [Example 29, 2-(1-(4-Cyano-3-fluorobenzyl)-4-hydroxy-2-oxo-2,5,7,8-tetrahydro-1H-pyrano[4,3-b]pyridine-3-carboxamido)acetic acid] yielded an IC50 of 16 nM.

Values taken from patent publication US10000501B2, “Inhibitors of HIF prolyl hydroxylase” (MERCK SHARP & DOHME CORP., priority 2014, dated 2018).
